{
  "source": "paper PMC11172460",
  "about": "(International Journal of Molecular Sciences, 2024)",
  "key": {"[1]": {"system": "neuronal differentiated N2a cells", "experiment": "Time-course of uptake in neuronal differentiated N2a cells", "assay_type": "cell-based, mouse", "experimental": "(§1) N2a cells were seeded on T75 flasks and grown in Dulbecco’s Modified Eagle Medium (DMEM) containing Glutamax, supplemented with 100 μg/mL streptomycin, 100 IU/mL penicillin, and 10% fetal bovine serum (FBS) in a humidified 5% CO2 atmosphere at 37 °C. After two passages by trypsinization, cells were seeded at a density of 5 × 10^3 cells/well in 12-well plates with 2 mL of DMEM or at a density of 5 × 10^2 cells/well in 96-well plates with 0.2 mL of DMEM, depending on the study (see below). For neural differentiation, N2a cells were allowed to adhere and proliferate in wells for 4 days; then, after washing once with serum-free DMEM, differentiating medium composed of DMEM containing 1% HS and 20 μM all-trans-retinoic acid (atRA) was added in both the seeding conditions, up to 6 days of differentiation, after which the cells were used for the experiments.\nThe potential ability of Fer-Ger to enter the neuronal cells of the brain, where it may exert its neuroprotective effects, was evaluated in 9 days-neuronal differentiated N2a cells (5 × 10^3 cells/well in a 12-well plate) at its best non-toxic concentrations of 5 µM and 10 µM in MTT. For their optimal dissolution, 5 µM and 10 µM Fer-Ger solutions in DPBS containing 0.1% BSA were kept for 30 min at 37 °C before the uptake experiment. Each of the 12-well plates was rinsed once with 1 mL of DPBS, and then 1 mL of 5 µM and 10 µM Fer-Ger was added to the test wells, and the plate was incubated for pre-determined interval times (5, 15, 30, and 60 min) in a humidified 5% CO2 atmosphere at 37 °C. The incubation was stopped at each time by taking the incubation DPBS from each well and storing it in Eppendorf tubes. […] The final number of cells was evaluated on untreated wells following their trypsinization and counted using the Scepter^TM 2.0 automated cell counter (Merck Millipore, Milan, Italy). Each reported value represents the mean of four independent incubation experiments."}, "[2]": {"experiment": "In vitro dissolution and release from SLMs", "assay_type": "physicochemical", "settings": "within 6 h, DPBS/MeOH 70:30 v/v, 37 °C", "experimental": "Fer-Ger dissolution and release from the SLMs were evaluated by adding raw Fer-Ger (about 0.1 mg) or SLMs, containing an equivalent amount of Fer-Ger, to 60 mL of a mixture of DPBS and methanol (70:30 v/v). The samples were kept under mechanical stirring at 50 rpm and 37 °C. At defined time intervals, 0.2 mL aliquots of the medium were withdrawn and replaced with an equal volume of fresh fluid. The aliquots were filtered (0.45 μm) and injected (10 μL) into the HPLC apparatus for Fer-Ger quantification. The dissolution or release (%) of Fer-Ger was calculated from its total amount incubated as a free compound or contained in the SLMs, respectively. The data were determined from the average of three independent experiments."}, "differentiated N2a cells [3]": {"system": "differentiated N2a cells", "experiment": "DCFH-DA assay of intracellular ROS production", "assay_type": "cell-based, mouse", "experimental": "as §1\nThe potential antioxidant effect of Fer-Ger was evaluated according to the original method of Wang and Joseph. In this method, the nonpolar 2′,7′-dichlorofluorescin diacetate (DCFH-DA) enters the intact cells and is hydrolyzed by intracellular esterases to nonfluorescent DCFH carboxylate anion, which remains entrapped and becomes the high fluorescent dichlorofluorescin (DCF) after oxidation by free radicals generated by a stressor, such as H2O2. Therefore, H2O2-induced intracellular ROS production was measured in N2a cells by a florescence intensity assay following exposure to the oxidation-sensitive dye DCFH-DA. N2a cells were seeded at a density of 1 × 10^4 cells/well in a black-coated and clear bottom 96-well plate and neuron-differentiated as reported above. After 6 days, differentiating medium in N2a cells was replaced with pre-warmed phenol-red-free and serum-free DMEM containing 10 µM DCFH-DA and incubated for 30 min in the dark in a humidified 5% CO2 atmosphere at 37 °C. The 10 µM DCFH-DA loading solution was then removed, and the cells were washed twice with fresh phenol-red-free and serum-free DMEM to remove the redundant extracellular DCFH-DA probe. Subsequently, N2a cells were incubated with pre-warmed phenol-red free DMEM containing 1% FBS as an untreated control and with solutions dissolved in phenol-red free DMEM containing 1% FBS of Fer-Ger (1, 5, or 10 µM) or 100 µM ascorbic acid (AA, as an established antioxidant positive control) and incubated for 1 h in a humidified 5% CO2 atmosphere at 37 °C. After this time, 100 µM H2O2 was added in the absence or presence of 1, 5 or 10 µM Fer-Ger or 100 µM AA, and the fluorescence intensity was measured at an excitation wavelength of 485 nm and at an emission wavelength of 530 nm, monitoring the oxidation of DCFH to DCF by the intracellular ROS by running the kinetic over 75 min in a fluorescence microplate reader (VICTOR^3TM 1420 Multilabel counter, PerkinElmer, Milan, Italy). Results were represented as a percentage of intracellular ROS production (100% of control) resulting from the mean values ± SEM of sextuplicate wells over time."}, "differentiated N2a cells [4]": {"system": "differentiated N2a cells", "experiment": "MTT assay of H2O2-altered viability (neuroprotection)", "assay_type": "cell-based, mouse", "settings": "then 100 µM H2O2 for 24 h", "experimental": "as §1\nThe MTT assay was also carried out to determine the neuroprotective effect of Fer-Ger on H2O2-induced cell oxidative stress in N2a neuronal cells. Briefly, N2a cells (5 × 10^2) were seeded and differentiated into 96-well plates, as reported above. Then, cells were incubated with 1 µM and 5 µM Fer-Ger dissolved in DMEM containing 0.5% HS for 1 h in a humidified 5% CO2 atmosphere at 37 °C. The experimental design therefore included cells incubated with only culture medium as a control and cells incubated for 24 h with 100 µM H2O2 as a damage-inducing agent after 1 h of preincubation in the absence or presence of 1 µM or 5 µM Fer-Ger. Then, 20 μL of MTT (5 mg/mL) was added into the 200 µL of the incubation medium. Four hours later, the medium containing MTT was aspirated and replaced by 100 µL of dimethyl sulfoxide (DMSO) solubilization agent for 1 h at 37 °C in an orbital shaker incubator. Finally, the absorbance of each well was measured at 570 nm using a microtiter plate reader (Sunrise® Microplate Reader, Tecan Trading AG, Männedorf, Switzerland)."}},
  "data": [
    {"smiles": "COc1cc(/C=C/C(=O)OC/C=C(\\C)CCC=C(C)C)ccc1O", "note": "[Fer-Ger, Geranyl ferulate]", "values": [
      {"measurement": "intracellular concentration (cellular uptake), saturation", "setting": "[1]; 5 μM Fer-Ger in DPBS, within 60 min, 37 °C", "result": "18.36 ± 2.52", "unit": "ng/5 × 10^4 cells"},
      {"measurement": "intracellular concentration (cellular uptake)", "setting": "[1]; 5 μM Fer-Ger in DPBS, within the first 5 min of incubation, 37 °C", "result": "9.46 ± 0.98", "unit": "ng/5 × 10^4 cells"},
      {"measurement": "intracellular concentration (cellular uptake), steady state", "setting": "[1]; 10 μM Fer-Ger in DPBS, within 60 min, 37 °C", "result": "46.73 ± 2.25", "unit": "ng/5 × 10^4 cells"},
      {"measurement": "intracellular concentration (cellular uptake)", "setting": "[1]; 10 μM Fer-Ger in DPBS, within the first 5–15 min of incubation, 37 °C", "result": "36.83 ± 1.65", "unit": "ng/5 × 10^4 cells"},
      {"measurement": "hydrolysis by neuronal cells (Ger detection intra- and extracellular)", "setting": "[1]; N2a cells, 5 and 10 μM, up to 60 min", "result": "not hydrolyzed by neuronal cells"},
      {"measurement": "raw powder solubilized (dissolution)", "setting": "[2]", "result": "about 30%"},
      {"measurement": "effect on basal ROS production", "setting": "differentiated N2a cells [3]; Fer-Ger 1, 5 and 10 µM alone, 75 min", "result": "did not affect the ROS production"},
      {"measurement": "effect on H2O2-induced ROS production", "setting": "differentiated N2a cells [3]; Fer-Ger 1, 5 and 10 µM with 100 µM H2O2, all times tested, p < 0.05", "result": "increased the H2O2-induced ROS production"},
      {"measurement": "prevention of H2O2-induced cell viability damage", "setting": "differentiated N2a cells [4]; 1 µM Fer-Ger preincubated 1 h", "result": "fully prevented"},
      {"measurement": "prevention of H2O2-induced cell viability damage", "setting": "differentiated N2a cells [4]; 5 µM Fer-Ger preincubated 1 h", "result": "fully prevented"}
    ]}
  ]
}
